This note sets out measurements from ChEMBL document CHEMBL1131228, “Molecular modeling of phenothiazines and related drugs as multidrug resistance modifiers: a comparative molecular field analysis study” (1998).

In the assay the test system is MCF7-DOX. The assay can be described thus: Anti MDR activity was expressed as MDR ratio or MDR fold reversal in doxorubicin resistant human breast carcinoma tumor cell line MCF-7/DOX. It is filed as functional.
Consider `CCN(CC)CCC=C1c2ccccc2Sc2ccc(Cl)cc21`, for which the MDR ratio worked out at 7.2.

With `CN(C)CC=C1c2ccccc2Sc2ccc(Cl)cc21`, the MDR ratio was 1.3.

Turning to `Clc1ccc2c(c1)C(=CCCN1CCCCC1)c1ccccc1S2`, the MDR ratio is reported as 15.

As for `CN(C)CCC=C1c2ccccc2Sc2ccc(C(F)(F)F)cc21`, the MDR ratio was 2.8.

`CN(C)CCCN1c2cc(O)ccc2Sc2cc(O)c(Cl)cc21`: the MDR ratio turned out to be 0.9.

On to `OCCN1CCN(CCCC2c3ccccc3Sc3ccc(Cl)cc32)CC1` (configuration not stated), for which the MDR ratio was 9.7.

For the compound `CN(C)CCCN1c2cc(Cl)ccc2Sc2cc(O)c(O)cc21`, the MDR ratio is 0.8.

Turning to `CN(C)CCCN1c2ccccc2Sc2c(Cl)cccc21`, the MDR ratio was found to be 1.4.

For the compound `OCCN1CCN(C/C=C2/c3ccccc3Sc3ccc(Cl)cc32)CC1`, the MDR ratio is on record as 1.6.

For `CN(C)CCCN1c2ccccc2Sc2cccc(Cl)c21`, the MDR ratio amounted to 1.3.

For the compound `Clc1ccc2c(c1)/C(=C\CCN1CCCCC1)c1ccccc1S2`, the MDR ratio came out at 6.7.

For the compound `CN(C)CCCN1c2ccccc2Sc2cc(Cl)ccc21`, the MDR ratio is 1.3.

`CCN(CC)CC/C=C1/c2ccccc2Sc2ccc(Cl)cc21`: the MDR ratio came to 4.

As to `CN(C)C/C=C1/c2ccccc2Sc2ccc(Cl)cc21`, the MDR ratio is 1.1.

For the compound `CN(C)CCCCN1c2ccccc2Sc2ccc(Cl)cc21`, the MDR ratio worked out at 2.

Regarding `CSc1ccc2c(c1)N(CCCN(C)C)c1ccccc1S2`, the MDR ratio is given as 1.5.

For `CN(C)CC/C=C1/c2ccccc2Sc2ccc(C(F)(F)F)cc21`, the MDR ratio is 1.8.

Regarding `CN(C)CCC=C1c2ccccc2Sc2ccc(Cl)cc21`, the MDR ratio stood at 7.

With `OCCN1CCN(CC/C=C2/c3ccccc3Sc3ccc(Cl)cc32)CC1` (stereo in doubt; 34) [ZUCLOPENTHIXOL], the MDR ratio worked out at 2.6.

Regarding `OCCN1CCN(CC/C=C2/c3ccccc3Sc3ccc(Cl)cc32)CC1` (stereo in doubt; 35) [ZUCLOPENTHIXOL], the MDR ratio turned out to be 15.

In the case of `CN(C)CCCN1c2ccc(O)cc2Sc2ccc(Cl)cc21` [7-HYDROXYCHLORPROMAZINE], the MDR ratio stood at 1.

`CN(C)CCCN1c2ccccc2[S+]([O-])c2ccc(Cl)cc21` (configuration not stated) [CHLOROPROMAZINE SULFOXIDE]: the MDR ratio is 2.2.

Regarding `CCN(CC)CCCN1c2ccccc2Sc2ccc(Cl)cc21` [CHLORPROETHAZINE], the MDR ratio is on record as 2.2.

`CN(C)CCCN1c2ccccc2Sc2ccc(Cl)cc21` [CHLORPROMAZINE]: the MDR ratio is recorded as 1.6.

On to `CN(C)CC/C=C1/c2ccccc2Sc2ccc(Cl)cc21` [CHLORPROTHIXENE], for which the MDR ratio was determined as 2.

In the case of `CN(C)CCN1c2ccccc2Sc2ccc(Cl)cc21` [CHOLRPHENETHAZINE], the MDR ratio came to 1.5.

On to `OCCN1CCN(CCCN2c3ccccc3Sc3ccc(C(F)(F)F)cc32)CC1` [FLUPHENAZINE], for which the MDR ratio is reported as 2.7.

Consider `CN(C)CCCN1c2ccccc2CCc2ccccc21` [IMIPRAMINE], for which the MDR ratio was found to be 2.5.

As for `CNCCCN1c2ccccc2Sc2ccc(Cl)cc21` [NOR1-CHLORPROMAZINE], the MDR ratio stood at 1.2.

Turning to `NCCCN1c2ccccc2Sc2ccc(Cl)cc21` [NOR2-CHLORPROMAZINE], the MDR ratio stood at 1.1.

`OCCN1CCN(CCCN2c3ccccc3Sc3ccc(Cl)cc32)CC1` [PERPHENAZINE]: the MDR ratio is recorded as 2.

`CN(C)CCCN1c2ccccc2Sc2ccccc21` [PROMAZINE]: the MDR ratio is 1.2.

In the case of `CC(CN1c2ccccc2Sc2ccccc21)N(C)C` (configuration not stated) [PROMETHAZINE], the MDR ratio was 1.9.

As for `CCN(CC)CCCC(C)Nc1c2ccc(Cl)cc2nc2ccc(OC)cc12` (configuration not stated) [QUINACRINE], the MDR ratio is given as 1.3.

As to `CN1CCN(CCCN2c3ccccc3Sc3ccc(C(F)(F)F)cc32)CC1` [TRIFLUOPERAZINE], the MDR ratio came out at 3.4.

Regarding `OCCN1CCN(CC/C=C2/c3ccccc3Sc3ccc(C(F)(F)F)cc32)CC1` [Z-FLUPENTIXOL], the MDR ratio is recorded as 15.2.

Regarding FLUPENTIXOL, the MDR ratio came to 4.8.
